Measured values from patent US11040981B2, “Pyrrolotriazine compounds and methods of inhibiting TAM kinases” (Syros Pharmaceuticals, Inc., priority 2017, dated 2021).

Assays:
MERTK = biological target: T1, MERTK (Homo sapiens, UniProt Q12866); assay: TR-FRET kinase activity assay, MERTK; format: biochemical; settings: for IC50: TR-FRET activity assay, ATP at Km, 60 minutes, read-out: Mer IC50
T1 sequence (Q12866 21-999): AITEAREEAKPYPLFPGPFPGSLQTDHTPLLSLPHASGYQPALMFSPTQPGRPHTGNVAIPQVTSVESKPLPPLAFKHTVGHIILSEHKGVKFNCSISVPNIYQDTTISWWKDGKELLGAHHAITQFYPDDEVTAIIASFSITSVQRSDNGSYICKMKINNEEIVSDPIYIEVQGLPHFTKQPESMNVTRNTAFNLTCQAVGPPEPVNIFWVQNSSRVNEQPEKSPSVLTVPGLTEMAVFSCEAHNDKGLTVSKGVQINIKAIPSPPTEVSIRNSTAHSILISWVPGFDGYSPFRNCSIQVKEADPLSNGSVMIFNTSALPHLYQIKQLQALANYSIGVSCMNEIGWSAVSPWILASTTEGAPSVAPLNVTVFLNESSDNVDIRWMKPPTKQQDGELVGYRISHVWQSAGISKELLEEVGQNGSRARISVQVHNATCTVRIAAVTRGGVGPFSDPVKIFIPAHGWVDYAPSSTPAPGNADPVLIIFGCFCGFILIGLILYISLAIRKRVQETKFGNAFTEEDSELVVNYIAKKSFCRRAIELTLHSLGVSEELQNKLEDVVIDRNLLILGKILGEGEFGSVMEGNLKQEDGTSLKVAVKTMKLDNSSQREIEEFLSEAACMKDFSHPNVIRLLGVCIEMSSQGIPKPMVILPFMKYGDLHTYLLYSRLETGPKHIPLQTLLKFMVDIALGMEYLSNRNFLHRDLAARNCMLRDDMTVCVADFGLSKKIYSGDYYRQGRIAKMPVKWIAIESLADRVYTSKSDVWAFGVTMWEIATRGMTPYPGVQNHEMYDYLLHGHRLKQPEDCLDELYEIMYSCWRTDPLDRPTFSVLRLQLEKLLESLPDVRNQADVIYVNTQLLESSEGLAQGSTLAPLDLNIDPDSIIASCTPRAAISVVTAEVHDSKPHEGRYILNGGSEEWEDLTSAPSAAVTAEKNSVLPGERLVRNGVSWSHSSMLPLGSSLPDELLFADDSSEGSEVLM
Summary of the method: (§1)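 Recombinant human kinases, fluorescent peptide substrate, ATP at Km; 1 h RT, pH 7.5. EDTA-quenched, Eu antibody added, TR-FRET read; IC50 determined.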

TYRO3 = biological target: T2, TYRO3 (Homo sapiens, UniProt Q06418); assay: TR-FRET kinase activity assay, TYRO3; format: biochemical; settings: ATP at Km, 60 minutes
T2 sequence (Q06418 41-890): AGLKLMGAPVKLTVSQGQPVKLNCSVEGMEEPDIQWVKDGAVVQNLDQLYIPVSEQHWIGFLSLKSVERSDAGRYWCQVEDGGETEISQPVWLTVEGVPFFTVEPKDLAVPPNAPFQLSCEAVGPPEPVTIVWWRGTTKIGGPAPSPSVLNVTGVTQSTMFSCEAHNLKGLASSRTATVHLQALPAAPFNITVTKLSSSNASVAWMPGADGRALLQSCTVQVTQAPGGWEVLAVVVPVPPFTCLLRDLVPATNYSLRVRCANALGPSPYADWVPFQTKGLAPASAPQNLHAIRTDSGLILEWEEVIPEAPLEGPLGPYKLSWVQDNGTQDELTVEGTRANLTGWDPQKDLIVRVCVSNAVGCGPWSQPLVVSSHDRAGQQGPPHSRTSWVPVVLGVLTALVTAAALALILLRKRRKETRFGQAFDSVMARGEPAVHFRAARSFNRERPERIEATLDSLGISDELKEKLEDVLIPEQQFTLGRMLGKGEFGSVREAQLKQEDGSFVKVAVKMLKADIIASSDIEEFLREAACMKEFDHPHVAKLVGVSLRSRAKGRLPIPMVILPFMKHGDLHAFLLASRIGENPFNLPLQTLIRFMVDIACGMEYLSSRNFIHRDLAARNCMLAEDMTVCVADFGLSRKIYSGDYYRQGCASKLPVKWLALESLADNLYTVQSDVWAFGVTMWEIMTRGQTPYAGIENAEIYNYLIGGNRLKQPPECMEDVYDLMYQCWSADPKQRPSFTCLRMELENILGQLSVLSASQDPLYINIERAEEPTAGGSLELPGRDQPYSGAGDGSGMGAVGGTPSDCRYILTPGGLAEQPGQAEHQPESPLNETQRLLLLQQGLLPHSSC
Summary of the method: as §1

[1] = ratio of Mer to FLT3: FLT3 IC50/Mer IC50
[2] = ratio calculated as FLT3 IC50/Mer IC50

SMILES	IC50 (MERTK)	FLT3/Mer ratio (FLT3 IC50/Mer IC50) (MERTK; [1])	IC50 (TYRO3)	FLT3/Mer ratio (FLT3 IC50/Mer IC50) (MERTK; [2])
COC[C@H](C)Nc1ncc2c(-c3ccnc(O[C@@H]4CCCNC4)c3)cc([C@H]3CC[C@H](O)CC3)n2n1 [Compound 390]	≤ 100 nM	+++ (“+++” represents a ratio of >100)	≤ 100 nM	
COC[C@H](C)Nc1ncc2c([C@@H]3CCN(S(C)(=O)=O)C3)cc([C@H]3CC[C@H](O)CC3)n2n1 [Compound 375]	≤ 100 nM	+++ (“+++” represents a ratio of >100)	≤ 100 nM	
COC[C@H](C)Nc1ncc2c([C@H]3CCCN(c4ccnc(C)n4)C3)cc([C@H]3CC[C@H](O)CC3)n2n1 [Compound 377]	≤ 100 nM	+++ (“+++” represents a ratio of >100)	≤ 100 nM	
COC[C@H](C)Nc1ncc2c(-c3cnn(CCC#N)c3)cc([C@H]3CC[C@](C)(O)CC3)n2n1 [Compound 382]	≤ 100 nM	+++ (“+++” represents a ratio of >100)	≤ 100 nM	
CNC(=O)c1cc(-c2cc([C@H]3CC[C@H](O)CC3)n3nc(N[C@@H](C)COC(F)F)ncc23)cc(C)n1 [Compound 385]	≤ 100 nM	+++ (“+++” represents a ratio of >100)	≤ 100 nM	
C[C@@H](CC(F)(F)F)Nc1ncc2c(-c3ccnc(N4CCOCC4)c3)cc([C@H]3CC[C@H](O)CC3)n2n1 [Compound 346]	≤ 100 nM	+++ (“+++” represents a ratio of >100)	≤ 100 nM	
COC[C@H](C)Nc1ncc2c(-c3cnn(CS(C)(=O)=O)c3)cc([C@H]3CC[C@H](O)CC3)n2n1 [Compound 419]	≤ 100 nM		≤ 100 nM	+++ (“+++” represents a ratio of >100)
COC[C@H](C)Nc1ncc2c(-c3ccnc(O[C@@H]4CCN(C)C4)c3)cc([C@H]3CC[C@H](O)CC3)n2n1 [Compound 402]	≤ 100 nM		≤ 100 nM	+++ (“+++” represents a ratio of >100)
CNC(=O)c1cc(-c2cc([C@H]3CC[C@H](O)CC3)n3nc(N[C@@H](C)CC(F)(F)F)ncc23)ccn1 [Compound 384]	≤ 100 nM	+++ (“+++” represents a ratio of >100)	≤ 100 nM	
COC[C@H](C)Nc1ncc2c(-c3ccnc(O[C@H]4CCCNC4)c3)cc([C@H]3CC[C@H](O)CC3)n2n1 [Compound 389]	≤ 100 nM	+++ (“+++” represents a ratio of >100)	≤ 100 nM	
CC(CC(F)F)Nc1ncc2c(-c3ccc(CN4CCN(C)CC4)cc3)cc(C3CCC(O)CC3)n2n1 (stereo not drawn) [Compound 352]	≤ 100 nM	++ (“++” represents a ratio of between 10 and 100)	≤ 100 nM	
COC[C@H](C)Nc1ncc2c(-c3cnn(C4COC4)c3)cc(C3CCC(=O)CC3)n2n1 [Compound 406]	≤ 100 nM		≤ 100 nM	+++ (“+++” represents a ratio of >100)
COC[C@H](C)Nc1ncc2c(-c3ccnc(O[C@H]4CCCN(C)C4)c3)cc([C@H]3CC[C@H](O)CC3)n2n1 [Compound 403]	≤ 100 nM		≤ 100 nM	+++ (“+++” represents a ratio of >100)
COC[C@H](C)Nc1ncc2c(-c3ccnc(C)c3)cc([C@H]3CC[C@](C)(O)CC3)n2n1 [Compound 391]	≤ 100 nM	+++ (“+++” represents a ratio of >100)	≤ 100 nM	
CNC(=O)c1cc(-c2cc([C@H]3CC[C@H](O)CC3)n3nc(N[C@@H](C)COC(F)F)ncc23)ccn1 [Compound 411]	≤ 100 nM		≤ 100 nM	+++ (“+++” represents a ratio of >100)
O[C@H]1CC[C@H](c2cc(-c3ccnc(N4CCOCC4)c3)c3cnc(NCCC(F)(F)F)nn32)CC1 [Compound 363]	≤ 100 nM	+ (“+” represents a ratio of >2.0 and <10)	≤ 100 nM	
COC[C@H](C)Nc1ncc2c(-c3cnn([C@H]4CCC(C(=O)OC(C)(C)C)C4)c3)cc([C@H]3CC[C@H](O)CC3)n2n1 (stereo partly drawn) [Compound 365]	≤ 100 nM	+++ (“+++” represents a ratio of >100)	≤ 100 nM	
COC[C@H](C)Nc1ncc2c(-c3cnn(CC4CC(=O)N(C)C4)c3)cc([C@H]3CC[C@H](O)CC3)n2n1 (stereo partly drawn) [Compound 395]	≤ 100 nM	+++ (“+++” represents a ratio of >100)	≤ 100 nM	
COC[C@H](C)Nc1ncc2c(-c3ccnc(NC4CCOC4)c3)cc([C@H]3CC[C@H](O)CC3)n2n1 (stereo partly drawn) [Compound 418]	≤ 100 nM		≤ 100 nM	+++ (“+++” represents a ratio of >100)
COC[C@H](C)Nc1ncc2c(-c3cnn(C4(C(=O)N5CCCC5)CC4)c3)cc([C@H]3CC[C@H](O)CC3)n2n1 [Compound 408]	≤ 100 nM		≤ 100 nM	+++ (“+++” represents a ratio of >100)
CNC(=O)c1cc(-c2cc([C@H]3CC[C@H](O)CC3)n3nc(N[C@@H](C)CC(F)(F)F)ncc23)cc(C)n1 [Compound 353]	≤ 100 nM	+++ (“+++” represents a ratio of >100)	≤ 100 nM	
COCC(C)Nc1ncc2c(C3CCN(C(C)=O)C3)cc(C3CCC(O)CC3)n2n1 (mixture of isomers) [Compound 383]	≤ 100 nM	+++ (“+++” represents a ratio of >100)	≤ 100 nM	
CC[C@H](C)Nc1ncc2c(-c3cncc(S(C)(=O)=O)c3)cc([C@H]3CC[C@H](O)CC3)n2n1 [Compound 119]	≤ 100 nM	+++ (“+++” represents a ratio of >100)	≤ 100 nM	
CN1CCN(Cc2ccc(-c3cc(C4CCC(O)CC4)n4nc(NC5CCC5(C)C)ncc34)cc2)CC1 (mixture of isomers) [Compound 121]	≤ 100 nM	++ (“++” represents a ratio of between 10 and 100)	≤ 100 nM	
COC[C@H](C)Nc1ncc2c(-c3cnn(CC4CCCO4)c3)cc([C@H]3CC[C@H](O)CC3)n2n1 (stereo partly drawn) [Compound 380]	≤ 100 nM	+++ (“+++” represents a ratio of >100)	≤ 100 nM	
CNC(=O)c1ncc(-c2cc([C@H]3CC[C@H](O)CC3)n3nc(N[C@@H](C)CC(F)(F)F)ncc23)cn1 [Compound 347]	≤ 100 nM	+++ (“+++” represents a ratio of >100)	≤ 100 nM	
COC[C@H](C)Nc1ncc2c(-c3cnn(C4(C(=O)NC(C)C)CC4)c3)cc([C@H]3CC[C@H](O)CC3)n2n1 [Compound 415]	≤ 100 nM		≤ 100 nM	+++ (“+++” represents a ratio of >100)
COC[C@H](C)Nc1ncc2c([C@@H]3CCCN(C(C)=O)C3)cc([C@H]3CC[C@H](O)CC3)n2n1 [Compound 372]	100 to 1000 nM	++ (“++” represents a ratio of between 10 and 100)	1000 to 10000 nM	
